Test results reported in paper PMC5933261, “A phase 1 dose-escalation study of veliparib with bimonthly FOLFIRI in patients with advanced solid tumours” (British Journal of Cancer, 2018).

How the values were obtained:
advanced solid tumours = test: Exploratory efficacy: ORR (RECIST version 1.1), TTP, DOR; type: in vivo, human
From the text: The sample size was based on clinical justification.

[1] = test system: patients with advanced solid tumours
From the text: This phase 1 open-label, multicentre, dose-escalation, and safety expansion study evaluated veliparib in combination with bimonthly FOLFIRI in patients with advanced solid tumours. The primary objectives were to determine the maximum tolerated dose (MTD) and establish the recommended phase 2 dose (RP2D) of the combination therapy. Secondary objectives were to assess the safety and tolerability, PK profile, and exploratory efficacy of the combination for each of the FOLFIRI regimens. Patients received veliparib and bimonthly FOLFIRI in 28-day cycles. Veliparib was administered on days 15–19 in cycle 1 and on days 1–5 and 15–19 in subsequent cycles (Fig. 1). Patients with stable disease or better status could continue veliparib and bimonthly FOLFIRI at the investigator’s discretion until progressive disease (PD), unacceptable toxicity, or FOLFIRI discontinuation. The trial was registered with the ClinicalTrials.gov registry (NCT01123876) and was approved by appropriate independent ethics committees/institutional review boards prior to initiation. The study was performed in accordance with the 1964 Declaration of Helsinki and its later amendments. Written informed consent was obtained from all patients before study enrollment.
Dose escalation occurred in three parts to evaluate the MTD/RP2D of three different bimonthly FOLFIRI regimens in combination with veliparib (Fig. 1). A minimum of three patients per dose level were included for dose-toxicity modeling. In part 1, dose escalation began with veliparib twice daily (BID) on days 15–19 of cycle 1 (to allow the determination of single-agent PK for irinotecan, the active metabolite of irinotecan (SN-38), folinic acid, and 5-FU on cycle 1 day 1). In parts 2 and 3, dose escalation began with veliparib BID on day 15 of cycle 1. The differences in the dosing schedules of parts 1, 2, and 3 relate to dosing of irinotecan and 5-FU, and are detailed in Fig. 1. In all parts, veliparib continued to be administered on days 1–5 and 15–19 of each subsequent 28-day cycle. […]

C[C@]1(c2nc3c(C(N)=O)cccc3[nH]2)CCCN1 [veliparib, Veliparib]
Median time to disease progression (TTP) (advanced solid tumours; expanded safety cohort, colorectal (N=6)): 195 days | 6-month TTP rate (advanced solid tumours; expanded safety cohort, colorectal cancer (n = 6), veliparib RP2D plus FOLFIRI): 60.0% | Median time to disease progression (TTP) (advanced solid tumours; expanded safety cohort, gastric (N=14)): 223 days | 6-month TTP rate (advanced solid tumours; expanded safety cohort, gastric cancer (n = 14), veliparib RP2D plus FOLFIRI): 53.8% | Complete response (CR) (advanced solid tumours; veliparib plus FOLFIRI): not achieved by any patients | Patients with a partial response (advanced solid tumours; veliparib plus FOLFIRI): Fifteen | Objective response rate (ORR) (advanced solid tumours; veliparib plus FOLFIRI, 85 patients with measurable lesions at baseline): 17.6% | ORR (CR + PR) (advanced solid tumours; veliparib plus FOLFIRI, Breast n = 8): 2 (25.0) (3.2–65.1) n (%) (95% CI) | ORR (CR + PR) (advanced solid tumours; veliparib plus FOLFIRI, Colorectal n = 9): 2 (22.2) (2.8–60.0) n (%) (95% CI) | ORR (CR + PR) (advanced solid tumours; veliparib plus FOLFIRI, Gastric n = 20): 3 (15.0) (3.2–37.9) n (%) (95% CI) | ORR (CR + PR) (advanced solid tumours; veliparib plus FOLFIRI, Other n = 27): 3 (11.1) (2.4–29.2) n (%) (95% CI) | ORR (CR + PR) (advanced solid tumours; veliparib plus FOLFIRI, Ovarian n = 7): 3 (42.9) (9.9–81.6) n (%) (95% CI) | ORR (CR + PR) (advanced solid tumours; veliparib plus FOLFIRI, Overall n = 85, measurable lesions at baseline): 15 (17.6) (10.2–27.4) n (%) (95% CI) | ORR (CR + PR) (advanced solid tumours; veliparib plus FOLFIRI, Pancreatic n = 14): 2 (14.3) (1.8–42.8) n (%) (95% CI) | Median time to disease progression (TTP) (advanced solid tumours; veliparib plus FOLFIRI, all dosed patients, colorectal (N=10)): 195 days | Median time to disease progression (TTP) (advanced solid tumours; veliparib plus FOLFIRI, all dosed patients, gastric (N=20)): 157 days | Median time to disease progression (TTP) (advanced solid tumours; veliparib plus FOLFIRI, all dosed patients, ovarian (N=9)): 361 days | Objective response rate (ORR) (advanced solid tumours; veliparib plus FOLFIRI, breast cancer): 25.0% | 6-month TTP rate (advanced solid tumours; veliparib plus FOLFIRI, breast cancer (n = 9)): 22.2% | Objective response rate (ORR) (advanced solid tumours; veliparib plus FOLFIRI, colorectal cancer): 22.2% | 6-month TTP rate (advanced solid tumours; veliparib plus FOLFIRI, colorectal cancer (n = 10)): 50.8% | 6-month TTP rate (advanced solid tumours; veliparib plus FOLFIRI, gastric cancer (n = 20)): 45.9% | 6-month TTP rate (advanced solid tumours; veliparib plus FOLFIRI, other cancers (n = 30)): 21.2% | Objective response rate (ORR) (advanced solid tumours; veliparib plus FOLFIRI, ovarian cancer (n = 7)): 42.9% | 6-month TTP rate (probability of remaining progression-free for 6 months) (advanced solid tumours; veliparib plus FOLFIRI, ovarian cancer (n = 9)): 65% | Objective response rate (ORR) (advanced solid tumours; veliparib plus FOLFIRI, pancreatic cancer): 14.3% | 6-month TTP rate (advanced solid tumours; veliparib plus FOLFIRI, pancreatic cancer (n = 14)): 26.8% | Median duration of overall response (DOR) (advanced solid tumours; veliparib plus FOLFIRI, patients who received irinotecan 150 mg/m^2): 560 days | Response rates (advanced solid tumours; veliparib plus FOLFIRI, previously treated patient population): over 15% | Recommended phase 2 dose (RP2D) of veliparib ([1]; human, in vivo): 200 mg BID | Maximum tolerated dose (MTD) ([1]; veliparib 10–270 mg BID plus FOLFIRI, Bayesian CRM): not reached
